From ChEMBL document CHEMBL1201862, “PubChem BioAssay data set” (2004)
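The compound was tested at five concentrations on cells cultured in 96-well plates, with a 48-hour exposure period. GI50 is the concentration that inhibits growth by half.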 Calls of active or inactive are those of the source. No stated cut-off is given here; in the data, active = GI50 up to about 1.1 µM and inactive = higher.

Assays:
Assay in all cases: NCI-60 cell line screen, 48 h
[1] = tested on: OVCAR-5
[2] = tested on: HCC 2998
[3] = tested on: HCT-15
[4] = tested on: RPMI-8226
[5] = tested on: HT-29
[6] = tested on: SF-268
[7] = tested on: HOP-92
[8] = tested on: SNB-75
[9] = tested on: KM12
[10] = tested on: SF-295
[11] = tested on: A498
[12] = tested on: MOLT-4
[13] = tested on: NCI-H460
[14] = tested on: UO-31
[15] = tested on: UACC-257
[16] = tested on: SK-MEL-2
[17] = tested on: HOP-62
[18] = tested on: IGROV-1
[19] = tested on: UACC-62
[20] = tested on: CAKI-1

Compound | GI50 [1] | GI50 [2] | GI50 [3] | GI50 [4] | GI50 [5] | GI50 [6] | GI50 [7] | GI50 [8] | GI50 [9] | GI50 [10] | GI50 [11] | GI50 [12] | GI50 [13] | GI50 [14] | GI50 [15] | GI50 [16] | GI50 [17] | GI50 [18] | GI50 [19] | GI50 [20]
O=S(=O)(CCBr)CCBr | 13.7 µM (inactive) | 6.95 µM (inactive) | 2.64 µM | 4.53 µM (inactive) | 5.94 µM (inactive) | 3.99 µM (inactive) | 6.21 µM (inactive) | 12.8 µM (inactive) | 13.9 µM (inactive) | 15.7 µM (inactive) | 6.3 µM (inactive) | 2.58 µM (inactive) | 12 µM (inactive) | 30.8 µM (inactive) | 3.82 µM (inactive) | 11.3 µM (inactive) | 0.506 µM (active) | 5.42 µM (inactive) | 2.96 µM (inactive) | 5.3 µM (inactive)
CC(=O)C(=O)NC1/C=C(C)\C=C/C(O)C/C=C(C)\C=C/C(O)CC2OC(=O)C1(C)C(=O)C2C (stereo not given) | > 100 µM (inactive) | > 100 µM (inactive) | > 100 µM | > 55.1 µM (inactive) | > 100 µM (inactive) | > 100 µM (inactive) | > 100 µM (inactive) | > 100 µM (inactive) | > 100 µM (inactive) | > 100 µM (inactive) | > 100 µM (inactive) | > 31.2 µM (inactive) | > 100 µM (inactive) | > 100 µM (inactive) | > 100 µM (inactive) | > 100 µM (inactive) | > 100 µM (inactive) | > 100 µM (inactive) | > 100 µM (inactive) | > 100 µM (inactive)
